Assay results published in US20100210478A1, “MAKE AND USE OF SURFACE MOLECULES OF VARIED DENSITIES” (priority 2006, published 2010).

Legend:
Src kinase, p60c-src = target: T1, Src kinase, p60c-src (Homo sapiens, UniProt P12931); experiment: protein kinase reaction on peptide chip, phosphorylation detected by cy3-Pro-Q staining; type: biochemical; conditions: pH7.5, 0.07 mM ATP, 25° C. for 30 min
T1 construct: purchased Invitrogen
Excerpt: FIG. 8 is a fluorescence image of a protein kinase reaction on pY-phosphopeptide chip. The experiment used Src kinase, p60c-src (Invitrogen). The chip included 23 known kinase substrates and their sequence variants, which vary in length and composition, a number of position and negative control sequences, and a few artificial peptide sequences. For each substrate peptide, at the phosphorylation position, Tyr (Y) in YEEI, for instance, three sequences are present, which are YEEI, pYEEI and AEEI. pY-containing sequences are directly synthesized which are reference sequences for the Y-containing sequences (as the substrate for kinase reactions) There are also background sites which contain no peptides. 8-22 redundancies were present. The peptide sequences shown in the image are YVPM (column 1) and the YEEIP (column 2) related sequences in double replicates. These sequences are given on right of the image. […] Kinase reaction conditions and phosphorylation detection were: 10× enzyme storage solution (0.5 mg/ml). 50 ul reaction buffer, pH7.5 (50 HEPES, 0.1 mM EDTA, and 0.01% Brij 35, 0.1 mg/ml BSA, 0.1% beta-mercaptoethanol, 0.07 mM ATP, 10 mM MgCl2), 25° C. for 30 min. The array was stained by filling the array with 200 ul cy3-Pro-Q solution (phosphate staining reagent), standing at room temperature for 20 min. The chip was then washed with 2 ml destaining buffer, pH 4.0 (50 mM […], 20% acetonitrile) as recommended by the vendor. The image was obtained from a regular microarray scanner (Axon GenPix 4000B) and shown using inverted intensities after background subtraction.
The signal intensities were analyzed using the following equation:
Relative phosphorylation efficiency: fP =(IY−IA)/(IpY−IA)
For a peptide, I is the signal intensity, IY is for Y-containing sequence which undergoes phosphorylation by kinase,IpY is for the synthetic phosphopeptide, IA is for the sequence containing Y→A substitution. By using the positive controls (pY-sequence) and negative controls (A-sequence or other non-phosphorylation amino acids) to derive relative phosphorylation efficiency, fp as fraction or percentage, the kinase reaction results were analyzed quantitatively. The method takes the advantage of addressable peptide array for reducing false positive readout and improves reliability of the data analysis.

peptide YEEIP = test system: T2, peptide YEEIP
T2 sequence: YEEIP

peptide YEE = test system: T3, peptide YEE
T3 sequence: YEE

peptide YVPM = test system: T4, peptide YVPM
T4 sequence: YVPM

peptide YEEI = test system: T5, peptide YEEI
T5 sequence: YEEI

| Substance | phosphorylation by Src kinase (substrate reactivity) (Src kinase, p60c-src) | also measured |
| --- | --- | --- |
| YEEI | phosphorylated |  |
| Src kinase, p60c-src (Invitrogen) |  | phosphorylation on peptide chip, cy3-Pro-Q phosphate staining (peptide YEEIP): YEEIP is a substrate of lower reactivity; phosphorylation on peptide chip, cy3-Pro-Q phosphate staining (peptide YEE): YEE and YEEI are phosphorylated by the Sic kinase used; phosphorylation on peptide chip, cy3-Pro-Q phosphate staining (peptide YVPM): YVPM has the lowest reactivity; phosphorylation on peptide chip, cy3-Pro-Q phosphate staining (peptide YEEI): YEE and YEEI are phosphorylated by the Sic kinase used |
| YEE | phosphorylated |  |

Continued, in another order:

| phosphorylation by Src kinase (substrate reactivity) (Src kinase, p60c-src) | Substance | also measured |
| --- | --- | --- |
| substrate of lower reactivity | YEEIP |  |
| lowest reactivity | YVPM |  |
